Reference: patent US12318393B2, “Modulators of orphan nuclear receptors for NASH and other metabolic disorders” (Emory University, priority 2018, dated 2025)

Assays:
[1] = Cellular toxicity assay in human PBM cells; assay type: cell-based; conditions: read-out: Cytotoxicity (IC50, μM) PBM
Method: The toxicity of the compounds was assessed in human PBM, CEM (human lymphoblastoid), and Huh-7 cells, as described previously (see Schinazi R. F., Sommadossi J.-P., Saalmann V., Cannon D. L., Xie M.-Y., Hart G. C., Smith G. A. & Hahn E. F. Antimicrob. Agents Chemother. 1990, 34, 1061-67). Cycloheximide was included as positive cytotoxic control, and untreated cells exposed to solvent were included as negative controls. The cytotoxicity IC50 was obtained from the concentration-response curve using the median effective method described previously (see Chou T.-C. & Talalay P. Adv. Enzyme Regul. 1984, 22, 27-55; Belen'kii M. S. & Schinazi R. F. Antiviral Res. 1994, 25, 1-11).

RORα = biological target: T1, RORα (Homo sapiens, UniProt P35398); assay: RORα activity by luciferase reporter (miR-122 promoter with WT or mutated RORE) in Huh-7 cells; assay type: cell-based; conditions: 24 hours of treatment
T1 construct: endogenous in cells; host or cells: Huh-7 (human hepatocellular carcinoma cells)
T1 sequence (P35398 1-523): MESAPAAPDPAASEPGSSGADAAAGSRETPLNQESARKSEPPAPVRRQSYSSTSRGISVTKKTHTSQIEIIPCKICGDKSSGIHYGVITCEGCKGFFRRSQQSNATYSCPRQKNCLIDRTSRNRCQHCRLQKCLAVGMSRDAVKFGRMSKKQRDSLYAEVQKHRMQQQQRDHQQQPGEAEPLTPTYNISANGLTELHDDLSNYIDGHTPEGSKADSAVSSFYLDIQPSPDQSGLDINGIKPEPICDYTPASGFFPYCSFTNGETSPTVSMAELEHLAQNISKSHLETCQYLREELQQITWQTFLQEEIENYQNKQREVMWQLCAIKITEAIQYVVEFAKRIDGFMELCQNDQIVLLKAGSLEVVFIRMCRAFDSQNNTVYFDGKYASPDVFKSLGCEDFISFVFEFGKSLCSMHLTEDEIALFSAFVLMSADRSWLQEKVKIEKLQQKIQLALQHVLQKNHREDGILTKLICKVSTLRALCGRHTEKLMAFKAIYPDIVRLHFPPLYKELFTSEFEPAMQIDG
Method: Huh-7 cells were transfected with a luciferase reporter plasmid containing the miR-122 promoter (extends to −900 from the transcription start site) with intact wild-type (WT) RORα response element (RORE) or mutated RORE (mut). The cells were treated with Compound 1 one day (24 hours) post-transfection at the indicated concentrations. Luciferase expression was measured after 24 hours of treatment and normalized to Renilla Luciferase activity expressed from a co-transfected pRL plasmid. The pRL Vector, which provides constitutive expression of Renilla luciferase, was used in combination with a firefly luciferase vector to co-transfect cells. […]
Luciferase assay. […] Firefly and Renilla luciferase activity was assessed using the Dual Luciferase Reporter Assay system (Promega). Readings were taken in triplicates on a Mithras LB 940 Luminometer (Berthold Technologies). […]
Following transfections, the cells were lysed with passive lysis buffer (Cat #E1941; Promega), shaking for 20 min at RT and transferred into appropriate 96-well plate. Firefly and Renilla luciferase activity was assessed using the Dual Luciferase Reporter Assay system (Cat #E1910; Promega) on a luminometer Mithras 2000 (Centro XZ, LB960, Berthold Technologies, Bad Wildbad, Germany). […] Readings were taken in triplicate.

luciferase expression, mutated RORE (RORα; Huh-7, miR-122 promoter reporter with mutated RORE): negates activity
luciferase expression, WT RORE (RORα; Huh-7, miR-122 promoter reporter with wild-type RORE): dose-dependent increase
SMILES: O=C1Nc2cc(C(=O)N3CCC(Cc4ccccc4)CC3)ccc2Nc2ccccc21 [Compound 1]
IC50 [1]: 92.4 µM
